Test results: ChEMBL document CHEMBL5042533, “Structural Optimization and Structure-Activity Relationship Studies of 6,6-Dimethyl-4-(phenylamino)-6H-pyrimido[5,4-b][1,4]oxazin-7(8H)-one Derivatives as A New Class of Potent Inhibitors of Pan-Trk and Their Drug-Resistant Mutants” (J Med Chem, 2022)
Activity calls are given as the source filed them. No cut-off for these calls is given here.

How the values were obtained:
[1] = target: High affinity nerve growth factor receptor (Homo sapiens, UniProt P04629); assay: Inhibition of wild type TrkA (unknown origin) using poly(Glu: Tyr) as substrate preincubated for 15 mins followed by substrate addition and further incubated for 30 mins in presence of [gamma-33P]ATP by scintillation counting method
High affinity nerve growth factor receptor, sequence (P04629 whole entry): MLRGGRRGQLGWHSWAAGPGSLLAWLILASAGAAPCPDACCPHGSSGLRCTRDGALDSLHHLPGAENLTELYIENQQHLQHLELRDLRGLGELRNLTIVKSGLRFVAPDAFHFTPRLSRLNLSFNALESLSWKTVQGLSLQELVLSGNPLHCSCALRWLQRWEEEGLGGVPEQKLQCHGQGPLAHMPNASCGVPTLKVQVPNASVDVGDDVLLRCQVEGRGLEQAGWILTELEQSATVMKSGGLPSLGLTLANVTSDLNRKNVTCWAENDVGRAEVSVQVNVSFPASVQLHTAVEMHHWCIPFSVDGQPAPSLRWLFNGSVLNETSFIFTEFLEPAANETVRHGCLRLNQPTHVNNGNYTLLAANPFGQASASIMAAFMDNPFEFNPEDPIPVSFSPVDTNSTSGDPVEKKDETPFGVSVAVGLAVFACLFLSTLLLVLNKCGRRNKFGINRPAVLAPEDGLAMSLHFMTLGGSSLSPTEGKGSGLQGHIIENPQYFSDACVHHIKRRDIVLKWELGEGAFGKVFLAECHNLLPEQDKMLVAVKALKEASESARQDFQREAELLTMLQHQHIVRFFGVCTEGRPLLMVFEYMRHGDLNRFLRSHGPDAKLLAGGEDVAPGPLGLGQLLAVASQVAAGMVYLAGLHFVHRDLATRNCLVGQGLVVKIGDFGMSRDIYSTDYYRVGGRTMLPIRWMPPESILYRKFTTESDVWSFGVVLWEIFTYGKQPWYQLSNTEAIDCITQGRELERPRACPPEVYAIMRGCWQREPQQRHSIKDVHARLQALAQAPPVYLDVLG

[2] = target: BDNF/NT-3 growth factors receptor (Homo sapiens, UniProt Q16620); assay: Inhibition of wild type TrkB (unknown origin) using poly(Glu: Tyr) as substrate preincubated for 15 mins followed by substrate addition and further incubated for 30 mins in presence of [gamma-33P]ATP by scintillation counting method
BDNF/NT-3 growth factors receptor, sequence (Q16620 whole entry, the tested form may be a part): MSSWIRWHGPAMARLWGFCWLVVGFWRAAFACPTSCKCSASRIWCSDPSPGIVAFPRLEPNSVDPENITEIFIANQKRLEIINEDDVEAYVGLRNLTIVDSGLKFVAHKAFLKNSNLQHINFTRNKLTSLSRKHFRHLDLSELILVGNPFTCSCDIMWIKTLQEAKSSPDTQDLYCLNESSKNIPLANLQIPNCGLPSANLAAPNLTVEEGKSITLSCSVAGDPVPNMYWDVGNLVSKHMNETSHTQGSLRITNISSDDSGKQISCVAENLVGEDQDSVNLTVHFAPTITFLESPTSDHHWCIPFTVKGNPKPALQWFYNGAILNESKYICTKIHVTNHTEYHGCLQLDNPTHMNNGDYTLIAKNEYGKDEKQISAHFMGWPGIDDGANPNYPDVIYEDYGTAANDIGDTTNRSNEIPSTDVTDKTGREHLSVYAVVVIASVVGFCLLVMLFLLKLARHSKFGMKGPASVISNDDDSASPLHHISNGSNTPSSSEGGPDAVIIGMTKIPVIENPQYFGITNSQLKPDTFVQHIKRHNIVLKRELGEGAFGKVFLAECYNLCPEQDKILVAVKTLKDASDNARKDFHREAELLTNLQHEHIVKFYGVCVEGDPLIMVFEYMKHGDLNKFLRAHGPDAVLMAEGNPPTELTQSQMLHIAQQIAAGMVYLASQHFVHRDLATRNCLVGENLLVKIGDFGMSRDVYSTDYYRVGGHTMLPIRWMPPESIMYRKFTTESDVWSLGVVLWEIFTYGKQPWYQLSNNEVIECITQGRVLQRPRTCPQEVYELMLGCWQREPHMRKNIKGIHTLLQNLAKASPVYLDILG

BaF3 [3] = assay: Cytotoxicity against mouse BaF3 cells expressing LMNA fused TrkA F589L mutant assessed as inhibition of cell growth incubated for 3 days by CCK-8 assay; format: functional, cell-based; details: BaF3, 72 h
BaF3 [4] = assay: cells; details: Mus musculus
Description: Cytotoxicity against mouse BaF3 cells harboring TEL fused TrkC G613R mutant assessed as inhibition of cell growth by MTT assay

BaF3 [5] = assay: cells; details: Mus musculus, BaF3, 72 h
Description: Cytotoxicity against mouse BaF3 cells expressing TEL fused TrkA assessed as inhibition of cell growth incubated for 3 days by CCK-8 assay

BaF3 [6] = assay: cells; details: Mus musculus, BaF3, 72 h; remark: listed apart in the source
Description: Cytotoxicity against mouse BaF3 cells expressing CD74 fused TrkA assessed as inhibition of cell growth incubated for 3 days by CCK-8 assay

BaF3 [7] = assay: cells; details: Mus musculus, BaF3, 72 h; remark: listed apart in the source
Description: Cytotoxicity against mouse BaF3 cells expressing TEL fused TrkC assessed as inhibition of cell growth incubated for 3 days by CCK-8 assay

BaF3 [8] = assay: cells; details: Mus musculus, BaF3, 72 h; remark: listed apart in the source
BaF3 [9] = assay: cells; details: Mus musculus, BaF3, 72 h; remark: listed apart in the source
BaF3 [10] = assay: cells; details: Mus musculus, BaF3, 72 h; remark: listed apart in the source
Description: Cytotoxicity against mouse BaF3 cells expressing LMNA fused TrkA G667S mutant assessed as inhibition of cell growth incubated for 3 days by CCK-8 assay

BaF3 [11] = assay: cells; details: Mus musculus, BaF3, 72 h; remark: listed apart in the source
Description: Cytotoxicity against mouse BaF3 cells expressing TEL fused TrkC G623R assessed as inhibition of cell growth incubated for 3 days by CCK-8 assay

BaF3 [12] = assay: cells; details: Mus musculus, BaF3, 72 h; remark: listed apart in the source
Description: Cytotoxicity against mouse BaF3 cells expressing TEL fused TrkC G696C assessed as inhibition of cell growth incubated for 3 days by CCK-8 assay

cells = details: Homo sapiens, KM12-Luc, 72 h
Description: Cytotoxicity against human KM12-Luc cells expressing TPM3 fused TrkA assessed as inhibition of cell growth incubated for 3 days by CCK-8 assay

in vitro = details: mouse, BaF3 cells
Description: Cytotoxicity against mouse BaF3 assessed as inhibition of cell growth incubated for 3 days by CCK-8 assay

BaF3 [13] = assay: Antitumour activity against mouse BaF3 cells expressing TEL fused TrkA allografted in NOD-SCID mouse assessed as reduction in tumor progression at 40 mg/kg/day, po qd measured every 2 or 3 days for 10 days; format: functional, organism-based; details: time 10.0 day
BaF3 [14] = assay: Antitumour activity against larotrectinib-resistant mouse BaF3 cells expressing TEL fused TrkC G623R mutant allografted in NOD-SCID mouse assessed as reduction in tumor growth at 40 mg/kg/day, po qd measured every 2 or 3 days for 10 days; format: functional, organism-based; details: time 10.0 day
[15] = Toxicity in NOD-SCID mouse allografted with mouse BaF3 cells expressing TEL fused TrkA assessed as body weight loss at 40 mg/kg, po qd measured every 2 or 3 days for 10 days; format: organism-based; details: in vivo, 240 h, time 10 day
[16] = Toxicity in NOD-SCID mouse allografted with larotrectinib-resistant mouse BaF3 cells expressing TEL fused TrkC G623R mutant assessed as body weight loss at 40 mg/kg, po qd measured every 2 or 3 days for 10 days; format: organism-based; details: in vivo, 240 h, time 10 day
[17] = Toxicity in NOD-SCID mouse assessed as histological changes in heart at 5 to 20 mg/kg, iv measured after 10 days by H and E staining based microscopic analysis; format: organism-based; details: in vivo, 240 h, dose 5-20 mg/kg, time 10 day
[18] = Toxicity in NOD-SCID mouse assessed as histological changes in liver at 5 to 20 mg/kg, iv measured after 10 days by H and E staining based microscopic analysis; format: organism-based; details: in vivo, 240 h, dose 5-20 mg/kg, time 10 day
[19] = Toxicity in NOD-SCID mouse assessed as histological changes in spleen at 5 to 20 mg/kg, iv measured after 10 days by H and E staining based microscopic analysis; format: organism-based; details: in vivo, 240 h, dose 5-20 mg/kg, time 10 day
[20] = Toxicity in NOD-SCID mouse assessed as histological changes in lung at 5 to 20 mg/kg, iv measured after 10 days by H and E staining based microscopic analysis; format: organism-based; details: in vivo, 240 h, dose 5-20 mg/kg, time 10 day
[21] = Toxicity in NOD-SCID mouse assessed as histological changes in kidney at 5 to 20 mg/kg, iv measured after 10 days by H and E staining based microscopic analysis; format: organism-based; details: in vivo, 240 h, dose 5-20 mg/kg, time 10 day
BaF3 [22] = assay: In vivo inhibition of Trk signalling in NOD-SCID mouse allografted with mouse BaF3 cells expressing TEL fused TrkC G623R mutant assessed as reduction in p-Trk level at 5 to 20 mg/kg, iv qd measured after 10 days by IHC staining based analysis; format: functional, organism-based; details: dose 5-20 mg/kg, time 10.0 day
BaF3 [23] = assay: In vivo inhibition of Trk signalling in NOD-SCID mouse allografted with mouse BaF3 cells expressing TEL fused TrkC G623R mutant assessed as reduction in p-Erk level at 5 to 20 mg/kg, iv qd measured after 10 days by IHC staining based analysis; format: functional, organism-based; details: dose 5-20 mg/kg, time 10.0 day
BaF3 [24] = assay: In vivo inhibition of Trk signalling in NOD-SCID mouse allografted with mouse BaF3 cells expressing TEL fused TrkC G623R mutant assessed as reduction in p-Akt level at 5 to 20 mg/kg, iv qd measured after 10 days by IHC staining based analysis; format: functional, organism-based; details: dose 5-20 mg/kg, time 10.0 day

| SMILES | IC50 [1] | IC50 [2] | IC50 (BaF3 [3]) | IC50 (BaF3 [4]) | IC50 (BaF3 [5]) | IC50 (BaF3 [6]) | IC50 (BaF3 [7]) | IC50 (BaF3 [8]) | IC50 (BaF3 [9]) | IC50 (BaF3 [10]) | IC50 (BaF3 [11]) | IC50 (BaF3 [12]) | IC50 (cells) | IC50 at 3 days (in vitro) | other results |
| --- | --- | --- | --- | --- | --- | --- | --- | --- | --- | --- | --- | --- | --- | --- | --- |
| Cc1ccc(-n2nc(C(C)(C)C)cc2NC(=O)Nc2ccc(Nc3ncnc4c3OC(C)(C)C(=O)N4)c(C)c2)cc1 | 22 nM | 18 nM | 4 nM | 58 nM | 1 nM | 5 nM | 13 nM | 31 nM | 1 nM | 4 nM | 58 nM | 2 nM | 6 nM | 2990 nM | – |
| Cc1cc(NC(=O)Nc2cc(C(C)(C)C)nn2-c2ccc(F)c(F)c2)ccc1Nc1ncnc2c1OC(C)(C)C(=O)N2 | 9 nM | 19 nM | 10 nM | 34 nM | 2 nM | 5 nM | 25 nM | 82 nM | 1 nM | 14 nM | 34 nM | 2 nM | 8 nM | > 10000 nM | – |
| C[C@@H]1CCc2ncc(F)cc2[C@H]2CCCN2c2ccn3ncc(c3n2)C(=O)N1 [SELITRECTINIB] | – | – | 17 nM | 18 nM | 9 nM | 1 nM | 4 nM | 15 nM | 109 nM | 30 nM | 18 nM | 50 nM | 5 nM | > 10000 nM | Activity (BaF3 [13]): Active; Activity (BaF3 [14]): Active; Activity [15]: Non-Toxic; Activity [16]: Non-Toxic; Activity [17]: Non-Toxic; Activity [18]: Non-Toxic; Activity [19]: Non-Toxic; Activity [20]: Non-Toxic; Activity [21]: Non-Toxic; inhibition (BaF3 [22]): Active; inhibition (BaF3 [23]): Active; inhibition (BaF3 [24]): Active |
